Entries after “also recorded” stand apart in the source; their conditions may differ. Ends that are not written are not given here.
Assays:
L. monocytogenes CBC1 = test: Deferred antagonism assay; type: cell-based, Listeria monocytogenes; design: key: + = Enhanced bioactivity relative to control; − = Bioactivity equal to or less than control; NA = no activity evident; settings: L. mono CBC1; XX and XXX hinge mutant producers
Method: (§1) Deferred antagonism assays were performed by replicating strains on GM17 or GM17 x-gal agar plates and allowing them to grow overnight before overlaying with either GM17/BHI/TS/MH agar (0.75% w/v agar) seeded with the appropriate indicator strain. Zone size was calculated as the diameter of the zone of clearing minus the diameter of bacterial growth (5 mm) For higher throughput screening of N20PXX, XM21VX, XXK22T and XXX banks deferred antagonism assays were performed by replicating strains using a 96 pin replicator (Boekel) or spotting 5 μl of a fresh overnight culture on GM17 agar plates and allowing them to grow overnight. […] Additional sets of indicators were employed to further assess/reassess the bioactivity of a number of strains. […] For well-diffusion assays molten agar was cooled to 48° C. and seeded with the appropriate indicator strain. The inoculated medium was rapidly transferred into sterile Petri plates in 50 ml volumes, allowed to solidify and dried. Wells (4.6 mm in diameter) were then made in the seeded plates. Purified nisin and mutant nisins were resuspended in 0.005% acetic acid, serially diluted, 50 μl volumes were dispensed into the aforementioned wells and the plates incubated at 37° C. overnight. Bioactivity was expressed as arbitrary units/ml (AU/ml) and calculated as the reciprocal of the highest dilution that gave a definite zone multiplied by the conversion factor (i.e. 20 when 50 μl was used) (Ryan et al., 1996).
(§2) As a consequence of the enhanced activities of K22T and K22S, a more in-depth investigation of this region was carried out. Saturation mutagenesis was undertaken to create a bank of nisin A hinge derivatives containing the vast majority of possible amino acid substitutions for each position. Although pPTPL was used successfully for random mutagenesis, its relatively large size of approx 10.5 kb was considered unsuitable for the complete plasmid PCR amplification approach utilized for saturation mutagenesis. A smaller (approx 6 kb) E. coli-L. lactis shuttle vector pCI372 was considered to be potentially more useful. Its suitability with respect to the in trans expression of nisA was confirmed by the ability of pDFO5 to restore the nisin positive phenotype. Saturation mutagenesis was performed on each codon using pDF05 and oligonucleotides (Table 5) that replace the specific codon with a NNK triplet, potentially encoding all 20 standard amino acids. Following complete plasmid amplification and introduction into the intermediate Top10 host, sequence analysis of a pooled bank of pDF05 derivatives confirmed randomization. Introduction of these variants into L. lactis NZ9800 allowed the expression of mutant nisin A peptides for further analysis. […] 46 residue conversions were isolated. All strains, regardless of bioactivity, were assessed with a view to comprehensively assessing the consequences of each individual hinge alteration.

L. monocytogenes CBC2 = test: Deferred antagonism assay; type: cell-based, Listeria monocytogenes; design: key: + = Enhanced bioactivity relative to control; − = Bioactivity equal to or less than control; NA = no activity evident; settings: L. mono CBC2; XX and XXX hinge mutant producers
Method: as §1, §2

L. monocytogenes CBC3 = test: Deferred antagonism assay; type: cell-based, Listeria monocytogenes; design: key: + = Enhanced bioactivity relative to control; − = Bioactivity equal to or less than control; NA = no activity evident; settings: L. mono CBC3; XX and XXX hinge mutant producers
Method: as §1, §2

L. lactis CBC7 = test: Deferred antagonism assay; type: cell-based; design: key: + = Enhanced bioactivity relative to control; − = Bioactivity equal to or less than control; NA = no activity evident; settings: XX and XXX hinge mutant producers
Method: as §1, §2

L. lactis CBC8 = test: Deferred antagonism assay; type: cell-based; design: key: + = Enhanced bioactivity relative to control; − = Bioactivity equal to or less than control; NA = no activity evident; settings: XX and XXX hinge mutant producers
Method: as §1, §2

S. aureus CBC4 = test: Deferred antagonism assay; type: cell-based; design: key: + = Enhanced bioactivity relative to control; − = Bioactivity equal to or less than control; NA = no activity evident; settings: XX and XXX hinge mutant producers
Method: as §1, §2

L. plantarum CBC6 = test: Deferred antagonism assay; type: cell-based, Lactobacillus plantarum; design: key: + = Enhanced bioactivity relative to control; − = Bioactivity equal to or less than control; NA = no activity evident; settings: XX and XXX hinge mutant producers
Method: as §1, §2

indicator strains = test: Deferred antagonism assays, various indicator strains (summary); type: cell-based; settings: for Target strain against which the hinge mutant was selected for enhanced bioactivity: XX and XXX banks, L. lactis HP*: enhanced or equal; for Target strain against which the hinge mutant was selected for enhanced bioactivity / Strain(s) against which the derivative (producing strain) displays enhanced bioactivity: relative to nisin A-producing control; for number of targets with enhanced activity: of the 8 additional targets tested; for Strain(s) against which the derivative (producing strain) displays enhanced bioactivity: value = strains listed
Method: as §1

| Substance | bioactivity relative to a nisin A-producing control (L. monocytogenes CBC1) | bioactivity relative to a nisin A-producing control (L. monocytogenes CBC2) | bioactivity relative to a nisin A-producing control (L. monocytogenes CBC3) | bioactivity relative to a nisin A-producing control (L. lactis CBC7) | bioactivity relative to a nisin A-producing control (L. lactis CBC8) | bioactivity relative to a nisin A-producing control (S. aureus CBC4) | bioactivity relative to a nisin A-producing control (L. plantarum CBC6) | Target strain against which the hinge mutant was selected for enhanced bioactivity (indicator strains) | number of targets with enhanced activity (indicator strains) | Strain(s) against which the derivative (producing strain) displays enhanced bioactivity (indicator strains) | number of strains with bioactivity (indicator strains; of the 16 strains tested) |
| --- | --- | --- | --- | --- | --- | --- | --- | --- | --- | --- | --- |
| NisinA GLA (ITSISLCTPGCKTGALMGCGLATATCHCSIHVSK; cysteine pairing not given here; also: lantibiotic nisin-A; UniProt P13068 24-57, looked up, variant N20G M21L K22A) [nisin A hinge variant GLA (i.e. N20G, M21L, K22A)] | − | − | − | − | − | − | − | B. cereus UCC1 | 1 | B. cereus UCC1 |  |
| NisinA GVK | − | − | + | + | − | + | − | C. sporogenes UCC1 | 3 | C. sporogenes UCC1, L. monocytogenes CBC3, S. aureus CBC4 and L. lactis CBC7 and C. sporogenes UCC1, L. mono CBC3, S. aureus CBC4, L. lactis and CBC7 |  |
| NisinA HLT (ITSISLCTPGCKTGALMGCHLTTATCHCSIHVSK; cysteine pairing not given here; also: lantibiotic nisin-A; UniProt P13068 24-57, looked up, variant N20H M21L K22T) [nisin A hinge variant HLT (i.e. N20H, M21L, K22T)] | − | + | + | + | − | + | − | Strep. agalactiae ATCC 13813 | 4 | S. agalactiae ATCC13813, L. monocytogenes CBC2 and CBC3, S. aureus CBC4 and L. lactis CBC7; also recorded: S. agalactiae ATCC13813, L. mono CBC2, CBC3, S. aureus |  |
| NisinA PAA | − | − | − | − | − | + | − | C. sporogenes UCC1 |  | C. sporogenes UCC1 and S. aureus CBC4 |  |
| NisinA PAK | − | − | − | − | − | + | − | Staph. aureus RF122/L. lactis HP* |  | S. aureus RF122 , CBC4 , NCDO1499 and DPC5246, L. lactis MG1363 , and L. monocytogenes 10403S and EGDe; also recorded: DPC5246, NCDO1499, L. mono 10403S and EGDe | 7 |
| NisinA PAL (ITSISLCTPGCKTGALMGCPALTATCHCSIHVSK; not fully specified (bridges); also: lantibiotic nisin-A: lanthionine rings and dehydrated residues, places not given here; UniProt P13068 24-57, looked up, variant N20P M21A K22L) [nisin A hinge variant PAL (i.e. N20P, M21A, K22L)] | − | + | − | + | + | + | − | C. sporogenes UCC1 | 4 | C. sporogenes UCC1, S. aureus CBC4, L. lactis CBC7 and CBC8, L. monocytogenes CBC2 and an additional 10 L. monocytogenes and 2 L. innocua; also recorded: C. sporogenes UCC1, L. mono CBC2, S. aureus CBC4, L. lactis |  |
| NisinA PAT (ITSISLCTPGCKTGALMGCPATTATCHCSIHVSK; not fully specified (bridges); also: lantibiotic nisin-A: lanthionine rings and dehydrated residues, places not given here; UniProt P13068 24-57, looked up, variant N20P M21A K22T) [nisin A hinge variant PAT (i.e. N20P, M21A, K22T)] | − | − | − | − | − | − | − | Strep. agalactiae ATCC 13813 |  | S. agalactiae ATCC13813 |  |
| NisinA PIA | − | − | − | − | − | − | − | Staph. aureus RF122 |  | B. cereus UCC1 |  |
| NisinA PIM | − | − | − | − | − | − | − | Staph. aureus RF122 |  | B. cereus UCC1 |  |
| PHM: nisin A hinge variant PHM (i.e. N20P, M21H, K22M) (ITSISLCTPGCKTGALMGCPHMTATCHCSIHVSK; not fully specified (bridges); also: lantibiotic nisin-A: lanthionine rings and dehydrated residues, places not given here; UniProt P13068 24-57, looked up, variant N20P M21H K22M) |  |  |  |  |  |  |  | Strep. agalactiae ATCC 13813 | 2 | Strep. agalactiae ATCC 13813 and Strain B; also recorded: Strep. agalactiae ATCC 13813, S. agalactiae Strain B |  |
